Where a name gives a salt, the structure may show the parent alone.
Key:
[1] = system: interleukin-1; assay: inhibition of interleukin-1 induced T cell proliferation assay; type: cell-based; settings: active = >30% at 10^-6 M
Text: The inhibition of interleukin-1 induced T cell proliferation assay, Proc. Nat. […] Since people with arthritis make excess interleukin 1, compounds which inhibit the activity of interleukin 1 are useful in the treatment of arthritis. According to this procedure compounds which inhibit the activity of interleukin 1 greater that 30% at 10^-6 M are considered to be "active".

[2] = system: arachidonic acid; assay: Arachidonic Acid Antagonism Assay (AAAA); type: in vivo, mouse (Charles River male CF-1); settings: mice; for arachidonic acid antagonism (elevation of LD50 of arachidonic acid): IV, 15 min before sodium arachidonate, outside 95% confidence interval of control LD50
Protocol: While not necessary to determine arachidonic acid antagonism, the above assay has been modified as follows: Charles River male CF-1 mice weighing […] are treated IV with the test compound dissolved in 1.0% Tween-80 and 0.1% hydrochloric acid in distilled water. 0 2 ml total volume. Fifteen minutes later sodium arachidonate (90% pure) in physiological (normal) […] is injected into the tail vein. The LD50 is measured using the Spearman-Karber method with a log dose interval of 0.05 (N-6). Compounds which elevate the LD50 outside of the 95% confidence interval of the control LD50 are considered to be "active".

[3] = system: angiogenesis; assay: fertile egg or chick embryo assay of Folkman (inhibition of angiogenesis / tumor growth); type: in vivo; settings: chick embryo; for inhibition of angiogenesis: 50 μg/10 μl with heparin, avascular zone 4 mm or greater
Protocol: According to this procedure compounds which are considered to be "active" (i.e, antiangiogenic) give an avascular zone of 4 mm or greater in some embryos when tested at 50 μg/10 μl in the presence of 50 μg/10 μ of heparin.

[4] = system: MDA formation in rat brain synaptosomes; assay: Malonyldialdehyde (MDA) Formation Assay (lipid peroxidation); type: biochemical; settings: active = 50% inhibition or more at 200 μM or less
Text: The MDA assays of Buege and Aust, Methods in Enzymology, Fleisher and Packer Editors. Academic Press, 1978, New York, Vol LII, p 302-310 and Kohn and Liversedge, J. Pharmacol. Exp. Ther. 82. […] Since iipid peroxidation is involved in the pathophysiology of central nervous system trauma, compounds which inhibit MDA formation are useful in treating the conditions listed below.
While not necessary to determine MDA formation, the above assays have been modified as follows: rat brain synaptosomes are prepared as described in the Example about the conjugated diene assay, except that the final wash of the synaptosomes and final suspension are in physiological (normal) saline in which the pH has been adjusted to 7 0. The synaptosomes are incubated for 10 min at 37° in physiological (normal) saline pH 7.0 (total volume=100 ul) containing; 10 ul synaptosomal suspension. 10% DMSO plus or minus drug. 150 uM Fe^+++ and 50 uM Fe^++. The incubation is started by the rapid addition of iron to the otherwise complete reaction. The iron solutions are prepared fresh as ferric chloride and ferrous ammonium sulfate in argon-purged water. Following the 10 min incubation, the reaction is stopped by the addition of 500 ul ice-cold 12% trichloroacetic acid prepared in 0.5 N hydrochloric acid. Water (300 ul) is then added along with 100 ul of freshly prepared thiobarbituric acid (3.3% in 0.5N sodium hydroxide) and 10 ul of 5mM desferrioxamine. The sample is then heated in a boiling water bath for 20 minutes. The samples are cooled and centrifuged for 15 minutes at 1500 xg and the absorbance of the supernatant fraction is read at 532 nm. The % inhibition of MDA formation is calculated by dividing the absorbance of sample containing drug by the absorbance of samples incubated without drug. Reaction blanks are samples incubated in the absence of iron A compound that inhibits MDA formation by 50% or more at a concentration of 200μM or less is considered "active".

Compound | inhibition of interleukin 1 [1] | inhibition of angiogenesis [3] | inhibition of MDA formation [4] | also measured
C[C@]12CC(=O)[C@H]3[C@@H](CCC4=CC(=O)CC[C@@]43C)[C@@H]1CC[C@@H]2C(=O)CN1CCN(c2cc(N3CCCC3)nc(N3CCCC3)n2)CC1.Cl.Cl [Example 94, 21-[4-[2,6-bis(1-pyrrolidinyl)-4-pyrimidinyl]-1-piperazinyl]-pregn-4-ene-3,11,20-trione dihydrochloride] | demonstrate inhibition of interleukin 1 |  |  | 
CN(CCN(C)c1ccccn1)CC(=O)[C@@]1(O)CC[C@H]2[C@@H]3CCC4=CC(=O)CC[C@]4(C)C3=CC[C@@]21C.Cl.Cl [Example 24, 17α-hydroxy-21-[methyl[2-(methyl-2-pyridinylamino)ethyl]amino]pregna-4,9(11)-diene-3,20-dione dihydrochloride] |  | demonstrate inhibition of angiogenesis |  | arachidonic acid antagonism (elevation of LD50 of arachidonic acid) [2]: demonstrate arachidonic acid antagonism
COc1ccc2c(c1)CC[C@@H]1[C@@H]2CC[C@@]2(C)[C@H]1CC[C@]2(O)C(=O)CN1CCN(c2cc(N3CCCC3)nc(N3CCCC3)n2)CC1 [Example 125, 3,17α-Dihydroxy-21-[4-[2,6-bis(1-pyrrolidinyl)-4-pyrimidinyl]-1-piperazinyl]-19-norpregna-1,3,5(10)-trien-20-one 3-methyl ether (E)-2-butenedioate 1:1 salt] |  |  | demonstrate such activity | 
COc1ccc(CCN(CC(=O)[C@@]2(O)CC[C@H]3[C@@H]4CCC5=CC(=O)CC[C@]5(C)C4=CC[C@@]32C)Cc2cc(OC)c(OC)c(OC)c2)cc1OC [Example 37, 17α-hydroxy-21-[[2-(3,4-dimethoxyphenyl)ethyl]-[3,4,5-trimethoxyphenyl)methyl]amino]pregna-4,9(11)diene-3,20-dione hydrochloride] | demonstrate inhibition of interleukin 1 | demonstrate inhibition of angiogenesis |  | 
CN1CCN(CC(=O)[C@@]2(O)CC[C@H]3[C@@H]4CCC5=CC(=O)CC[C@]5(C)C4=CC[C@@]32C)CC1 [Example 101, 17α-hydroxy-21-(4-methyl-1-piperazinyl)-pregna-4,9(11)-diene-3,20-dione] | demonstrate inhibition of interleukin 1 |  |  | 
C[C@]12CCC(=O)C=C1CC[C@@H]1C2=CC[C@@]2(C)[C@H]1CC[C@]2(O)C(=O)CN1CCN(c2cccc(N3CCCC3)n2)CC1 [Example 62, 17α-hydroxy-21-[4-[6-(1-pyrrolidinyl)-2-pyridinyl]-1-piperazinyl]pregna-4,9(11)-diene-3,20-dione(E)-2-butenedioate (1:1) salt] |  |  | demonstrate such activity | % of Control LD50 ([2]; 100 mg/kg, LD50 of sodium arachidonate): 138%; arachidonic acid antagonism (elevation of LD50 of arachidonic acid) [2]: demonstrate arachidonic acid antagonism
C[C@@H]1C[C@H]2[C@@H]3CCC4=CC(=O)C=C[C@]4(C)[C@H]3CC[C@]2(C)[C@H]1C(=O)CN1CCN(c2cc(N3CCCC3)nc(N3CCCC3)n2)CC1.Cl.Cl [Example 121, 16α-Methyl-21-[4-[2,6-bis(1-pyrrolidinyl)-4-pyrimidinyl]-1-piperazinyl]pregna-1,4-diene-3,20-dione dihydrochloride] |  |  | demonstrate such activity | 
CCN(CC)c1ccc(N(C)C)c(N2CCN(CC(=O)[C@@]3(O)CC[C@H]4[C@@H]5CCC6=CC(=O)CC[C@]6(C)C5=CC[C@@]43C)CC2)n1.Cl.Cl [Example 96, 21-[4-[6-(diethylamino)-3-(dimethylamino)-2-pyridinyl]-1-piperazinyl]-17α-hydroxypregna-4,9(11)-diene-3,20-dione dihydrochloride] | demonstrate inhibition of interleukin 1 |  |  | 
C[C@]12CCC(=O)C=C1CC[C@@H]1C2=CC[C@]2(C)[C@@H](CCN3CCN(c4cc(N5CCCC5)nc(N5CCCC5)n4)CC3)CC[C@@H]12.Cl [Example 104, 21-[4-(2,6-Bis(1-pyrrolidinyl)-4-pyrimidinyl)-1-piperazinyl]pregna-4,9(11)-dien-3-one hydrochloride] |  | demonstrate inhibition of angiogenesis | demonstrate such activity | 
C[C@]12CC[C@H]3[C@@H](CCC4=CC(=O)C=C[C@@]43C)[C@@H]1CC[C@@H]2C(=O)CN1CCN(c2cc(N3CCCC3)nc(N3CCCC3)n2)CC1.Cl.Cl [Example 97, 21-[4-[2,6-di-(1-pyrrolidinyl)-4-pyrimidinyl]-1-piperazinyl]-pregna-1,4-diene-3,20-dione dihydrochloride] | demonstrate inhibition of interleukin 1 | demonstrate inhibition of angiogenesis |  | 
C[C@]12CC[C@H]3[C@@H](CCC4=CC(=O)CC[C@@]43C)[C@@H]1CC[C@@H]2CCN1CCN(c2cc(N3CCCC3)nc(N3CCCC3)n2)CC1.Cl [Example 107, 21-[4-(2,6-Bis(1-pyrrolidinyl)-4-pyrimidinyl)-1-piperazinyl]pregna-4-ene-3-one hydrochloride] |  |  | demonstrate such activity | 
C[C@H]1C[C@H]2[C@@H]3C[C@H](F)C4=CC(=O)CC[C@]4(C)C3=CC[C@]2(C)[C@@]1(O)C(=O)CN1CCN(c2cc(N3CCCC3)nc(N3CCCC3)n2)CC1.Cl.Cl [Example 118, 6α-Fluoro-17α-hydroxy-16β-methyl-21-[4-[2,6-bis(1-pyrrolidinyl)-4-pyrimidinyl]-1-piperazinyl]-pregna-4,9(11)-diene-3,20-dione dihydrochloride] |  |  | demonstrate such activity | 
C[C@]12CC[C@@H]3c4ccc(O)cc4CC[C@H]3[C@@H]1CC[C@]2(O)C(=O)CN1CCN(c2cc(N3CCCC3)nc(N3CCCC3)n2)CC1 [Example 129, 3,17α-Dihydroxy-21-[4-[2,6-bis(1-pyrrolidinyl)-4-pyrimidinyl]-1-piperazinyl]-19-norpregna-1,3,5(10)-trien-20-one(E)-2-butenedioate 1:1 salt] |  |  | demonstrate such activity | 
C[C@@]12C(=CC(=O)C[C@@H]1C#N)CC[C@@H]1C2=CC[C@]2(C)[C@@H](CCN3CCN(c4cc(N5CCCC5)nc(N5CCCC5)n4)CC3)CC[C@@H]12.Cl.Cl.Cl.O [Example 110, 21-[4-(2,6-Bis(1-pyrrolidinyl)-4-pyrimidinyl)-1-piperazinyl]-1α-cyanopregna-4,9(11)-diene-3-one-trihydrochloride, hydrate] |  |  | demonstrate such activity | 
C[C@H]1C[C@@H]2[C@H]([C@@H](O)C[C@@]3(C)[C@H]2CC[C@]3(O)C(=O)CN2CCN(c3ccccn3)CC2)[C@@]2(C)C=CC(=O)C=C12 [Example 21, 11β,17α-dihydroxy-6α-methyl-21-[4-(2-pyridinyl)-1-piperazinyl]pregna-1,4-diene-3,20-dione] | demonstrate inhibition of interleukin 1 | demonstrate inhibition of angiogenesis |  | arachidonic acid antagonism (elevation of LD50 of arachidonic acid) [2]: demonstrate arachidonic acid antagonism; % of Embryos with 4 mm or Greater A vascular Zone ([3]; 50 μg/10 μl in the presence of heparin): 91%

Source: patent USRE35053E, “Amines useful in producing pharmaceutically active CNS compounds” (The Upjohn Company, priority 1992, dated 1995)
